{
  "source": "ChEMBL document CHEMBL4321866",
  "about": "“Discovery of Highly Potent and Efficient PROTAC Degraders of Androgen Receptor (AR) by Employing Weak Binding Affinity VHL E3 Ligase Ligands” (J Med Chem, 2019)",
  "key": {"[1]": {"target": "T1, von Hippel-Lindau disease tumor suppressor/Androgen receptor (Homo sapiens, UniProt P10275+P40337)", "assay": "Protac activity against VHL/AR in AR-positive human LNCAP cells assessed as reduction in PSA mRNA expression level incubated for 24 hrs by qRT-PCR analysis", "format": "cell-based"}, "[2]": {"target": "T1, von Hippel-Lindau disease tumor suppressor/Androgen receptor", "assay": "Protac activity against VHL/AR in AR-positive human LNCAP cells assessed as induction of AR degradation at 0.01 uM incubated for 6 hrs by Western blot analysis relative to control", "format": "cell-based"}, "[3]": {"target": "T1, von Hippel-Lindau disease tumor suppressor/Androgen receptor", "assay": "Protac activity against VHL/AR in AR-positive human LNCAP cells assessed as induction of AR degradation at 0.1 uM incubated for 6 hrs by Western blot analysis relative to control", "format": "cell-based"}, "[4]": {"target": "T1, von Hippel-Lindau disease tumor suppressor/Androgen receptor", "assay": "Protac activity against VHL/AR in AR-positive human LNCAP cells assessed as induction of AR degradation at 1 uM incubated for 6 hrs by Western blot analysis relative to control", "format": "cell-based"}, "[5]": {"target": "T1, von Hippel-Lindau disease tumor suppressor/Androgen receptor", "assay": "Protac activity against VHL/AR in AR-positive human LNCAP cells assessed as induction of AR degradation by measuring reduction in AR protein level at 100 nM incubated for 3 hrs by Western blot analysis", "format": "cell-based"}, "[6]": {"target": "T1, von Hippel-Lindau disease tumor suppressor/Androgen receptor", "assay": "Protac activity against VHL/AR in AR-positive human VCaP cells assessed as induction of AR degradation by measuring reduction in AR protein level at 100 nM incubated for 3 hrs by Western blot analysis relative to control", "format": "cell-based", "design": "scale not given: the % may be the effect or the level left"}, "[7]": {"target": "T1, von Hippel-Lindau disease tumor suppressor/Androgen receptor", "assay": "Protac activity against VHL/AR in AR-positive human LNCAP cells assessed as induction of AR degradation incubated for 6 hrs by Western blot analysis", "format": "cell-based"}, "[8]": {"target": "T1, von Hippel-Lindau disease tumor suppressor/Androgen receptor", "assay": "Protac activity against VHL/AR in AR-positive human VCaP cells assessed as induction of AR degradation incubated for 6 hrs by Western blot analysis", "format": "cell-based"}, "[9]": {"target": "T1, von Hippel-Lindau disease tumor suppressor/Androgen receptor", "assay": "Protac activity against VHL/AR in AR-positive human 22Rv1 cells assessed as induction of AR degradation incubated for 6 hrs by Western blot analysis"}, "[10]": {"target": "T1, von Hippel-Lindau disease tumor suppressor/Androgen receptor", "assay": "Protac activity against VHL/AR in AR-positive human LNCAP cells assessed as induction of AR degradation by measuring reduction in AR protein level at 30 nM incubated for 6 hrs by Western blot analysis relative to control", "format": "cell-based", "design": "scale not given: the % may be the effect or the level left"}, "[11]": {"target": "T1, von Hippel-Lindau disease tumor suppressor/Androgen receptor", "assay": "Protac activity against VHL/AR in AR-positive human VCaP cells assessed as induction of AR degradation by measuring reduction in AR protein level at 30 nM incubated for 6 hrs by Western blot analysis relative to control", "format": "cell-based", "design": "scale not given: the % may be the effect or the level left"}, "[12]": {"target": "T1, von Hippel-Lindau disease tumor suppressor/Androgen receptor", "assay": "Protac activity against VHL/AR in AR-positive human 22Rv1 cells assessed as induction of AR degradation by measuring reduction in AR protein level at 10 nM incubated for 6 hrs by Western blot analysis relative to control", "design": "scale not given: the % may be the effect or the level left"}, "[13]": {"target": "T1, von Hippel-Lindau disease tumor suppressor/Androgen receptor", "assay": "Protac activity against VHL/AR in AR-positive human LNCAP cells assessed as AR degradation at 100 nM preincubated with VHL ligand VHLa for 2 hrs followed by incubation with compound for 6 hrs by Western blot analysis", "format": "cell-based"}, "[14]": {"target": "T1, von Hippel-Lindau disease tumor suppressor/Androgen receptor", "assay": "Protac activity against VHL/AR in AR-positive human LNCAP cells assessed as AR degradation at 100 nM preincubated with NEDD8-activating E1 enzyme inhibitor, MLN4924 for 2 hrs followed by incubation with compound for 6 hrs by Western blot analysis", "format": "cell-based"}, "[15]": {"target": "T1, von Hippel-Lindau disease tumor suppressor/Androgen receptor", "assay": "Protac activity against VHL/AR in AR-positive human LNCAP cells assessed as AR degradation at 100 nM preincubated with proteasome inhibitor, MG132 for 2 hrs followed by incubation with compound for 6 hrs by Western blot analysis", "format": "cell-based"}, "[16]": {"target": "T1, von Hippel-Lindau disease tumor suppressor/Androgen receptor", "assay": "Protac activity against VHL/AR in AR-positive human LNCAP cells assessed as reduction in TMPRSS2 mRNA expression level incubated for 24 hrs by qRT-PCR analysis", "format": "cell-based"}, "[17]": {"target": "T1, von Hippel-Lindau disease tumor suppressor/Androgen receptor", "assay": "Protac activity against VHL/AR in AR-positive human LNCAP cells assessed as reduction in FKBP5 mRNA expression level incubated for 24 hrs by qRT-PCR analysis", "format": "cell-based"}, "[18]": {"target": "T1, von Hippel-Lindau disease tumor suppressor/Androgen receptor", "assay": "Protac activity against VHL/AR in AR-positive human LNCAP cells assessed as reduction in PSA mRNA expression level at 10 nM incubated for 24 hrs by qRT-PCR analysis relative to control", "format": "cell-based", "design": "scale not given: the % may be the effect or the level left"}, "[19]": {"target": "T1, von Hippel-Lindau disease tumor suppressor/Androgen receptor", "assay": "Protac activity against VHL/AR in AR-positive human LNCAP cells assessed as reduction in TMPRSS2 mRNA expression level at 10 nM incubated for 24 hrs by qRT-PCR analysis relative to control", "format": "cell-based", "design": "scale not given: the % may be the effect or the level left"}, "[20]": {"target": "T1, von Hippel-Lindau disease tumor suppressor/Androgen receptor", "assay": "Protac activity against VHL/AR in AR-positive human LNCAP cells assessed as reduction in FKBP5 mRNA expression level at 10 nM incubated for 24 hrs by qRT-PCR analysis relative to control", "format": "cell-based", "design": "scale not given: the % may be the effect or the level left"}, "LNCaP": {"test_system": "LNCaP", "assay": "Antiproliferative activity against AR-positive human LNCAP cells incubated for 7 days in presence of AR agonist, R1881 by WST-8 assay", "format": "functional, cell-based", "conditions": "168 h"}, "VCaP [21]": {"test_system": "VCaP", "assay": "Antiproliferative activity against AR- positive human VCaP cells incubated for 7 days in presence of AR agonist, R1881 by WST-8 assay", "format": "functional, cell-based", "conditions": "168 h"}, "[22]": {"target": "T1, von Hippel-Lindau disease tumor suppressor/Androgen receptor", "assay": "Protac activity against VHL/AR in AR-positive human LNCAP cells assessed as AR degradation at 100 nM preincubated with AR antagonist N-((1r,3r)-3-(3-Chloro-4-cyanophenoxy)-2,2,4,4-tetramethylcyclobutyl)-1-(2-hydroxyethyl)-1H-pyrazole-4-carboxamide for 2 hrs followed by incubation with compound addition for 6 hrs by Western blot analysis", "format": "cell-based"}, "VCaP [23]": {"test_system": "VCaP", "assay": "Potency index, ratio of IC50 for AR antagonist N-((1r,3r)-3-(3-Chloro-4-cyanophenoxy)-2,2,4,4-tetramethylcyclobutyl)-1-(2-hydroxyethyl)-1H-pyrazole-4-carboxamide to IC50 for test compound against AR-positive human VCaP cells incubated for 7 days in presence of AR agonist R1881 by WST-8 assay", "format": "functional"}, "[24]": {"target": "T1, von Hippel-Lindau disease tumor suppressor/Androgen receptor", "assay": "Protac activity against VHL/AR in AR-positive human LNCAP cells assessed as reduction in PSA mRNA expression level incubated for 24 hrs by qRT-PCR analysis relative to N-((1r,3r)-3-(3-Chloro-4-cyanophenoxy)-2,2,4,4-tetramethylcyclobutyl)-1-(2-hydroxyethyl)-1H-pyrazole-4-carboxamide", "format": "cell-based"}, "[25]": {"target": "T1, von Hippel-Lindau disease tumor suppressor/Androgen receptor", "assay": "Protac activity against VHL/AR in AR-positive human LNCAP cells assessed as reduction in TMPRSS2 mRNA expression level incubated for 24 hrs by qRT-PCR analysis relative to N-((1r,3r)-3-(3-Chloro-4-cyanophenoxy)-2,2,4,4-tetramethylcyclobutyl)-1-(2-hydroxyethyl)-1H-pyrazole-4-carboxamide", "format": "cell-based"}, "[26]": {"target": "T1, von Hippel-Lindau disease tumor suppressor/Androgen receptor", "assay": "Protac activity against VHL/AR in AR-positive human LNCAP cells assessed as reduction in FKBP5 mRNA expression level incubated for 24 hrs by qRT-PCR analysis relative to N-((1r,3r)-3-(3-Chloro-4-cyanophenoxy)-2,2,4,4-tetramethylcyclobutyl)-1-(2-hydroxyethyl)-1H-pyrazole-4-carboxamide", "format": "cell-based"}, "[27]": {"target": "T1, von Hippel-Lindau disease tumor suppressor/Androgen receptor", "assay": "Protac activity against VHL/AR in AR-positive human VCaP cells assessed as reduction in TMPRSS2 mRNA expression level incubated for 24 hrs by qRT-PCR analysis relative to N-((1r,3r)-3-(3-Chloro-4-cyanophenoxy)-2,2,4,4-tetramethylcyclobutyl)-1-(2-hydroxyethyl)-1H-pyrazole-4-carboxamide", "format": "cell-based"}, "[28]": {"target": "T1, von Hippel-Lindau disease tumor suppressor/Androgen receptor", "assay": "Protac activity against VHL/AR in AR-positive human VCaP cells assessed as reduction in FKBP5 mRNA expression level incubated for 24 hrs by qRT-PCR analysis relative to N-((1r,3r)-3-(3-Chloro-4-cyanophenoxy)-2,2,4,4-tetramethylcyclobutyl)-1-(2-hydroxyethyl)-1H-pyrazole-4-carboxamide", "format": "cell-based"}, "[29]": {"target": "T1, von Hippel-Lindau disease tumor suppressor/Androgen receptor", "assay": "Protac activity against VHL/AR in AR-positive human VCaP cells assessed as reduction in ERG mRNA expression level incubated for 24 hrs by qRT-PCR analysis relative to N-((1r,3r)-3-(3-Chloro-4-cyanophenoxy)-2,2,4,4-tetramethylcyclobutyl)-1-(2-hydroxyethyl)-1H-pyrazole-4-carboxamide", "format": "cell-based"}},
  "note": "Active and inactive are the calls of the source. The rule behind the calls is not given here.",
  "data": [
    {"smiles": "Cc1cc([C@H](C(=O)N2C[C@H](O)C[C@H]2C(=O)N[C@@H](CC(=O)N2CCC(C#Cc3ccc(C(=O)N[C@H]4C(C)(C)[C@H](Oc5ccc(C#N)c(Cl)c5)C4(C)C)cc3)CC2)c2ccccc2)C(C)C)on1", "values": [
      {"measurement": "Activity", "setting": "[1]", "result": "Dose-dependent effect"},
      {"measurement": "Activity", "setting": "[2]", "result": 90, "unit": "%"},
      {"measurement": "Activity", "setting": "[3]", "result": "> 95", "unit": "%"},
      {"measurement": "Activity", "setting": "[4]", "result": "> 99", "unit": "%"},
      {"measurement": "Activity", "setting": "[5]", "result": "Active"},
      {"measurement": "Activity", "setting": "[6]", "result": "> 90", "unit": "%"},
      {"measurement": "Activity", "setting": "[7]", "result": "Dose-dependent effect"},
      {"measurement": "DC50", "setting": "[7]", "result": 0.535, "unit": "nM"},
      {"measurement": "Activity", "setting": "[8]", "result": "Dose-dependent effect"},
      {"measurement": "DC50", "setting": "[8]", "result": 0.969, "unit": "nM"},
      {"measurement": "Activity", "setting": "[9]", "result": "Dose-dependent effect"},
      {"measurement": "DC50", "setting": "[9]", "result": 0.153, "unit": "nM"},
      {"measurement": "Activity", "setting": "[10]", "result": "> 95", "unit": "%"},
      {"measurement": "Activity", "setting": "[11]", "result": "> 95", "unit": "%"},
      {"measurement": "Activity", "setting": "[12]", "result": "> 95", "unit": "%"},
      {"measurement": "Activity", "setting": "[13]", "result": "inactive"},
      {"measurement": "Activity", "setting": "[14]", "result": "inactive"},
      {"measurement": "Activity", "setting": "[15]", "result": "inactive"},
      {"measurement": "Activity", "setting": "[16]", "result": "Dose-dependent effect"},
      {"measurement": "Activity", "setting": "[17]", "result": "Dose-dependent effect"},
      {"measurement": "Activity", "setting": "[18]", "result": "> 50", "unit": "%"},
      {"measurement": "Activity", "setting": "[19]", "result": "> 50", "unit": "%"},
      {"measurement": "Activity", "setting": "[20]", "result": "> 50", "unit": "%"},
      {"measurement": "IC50", "setting": "LNCaP", "result": 2, "unit": "nM"},
      {"measurement": "IC50", "setting": "VCaP [21]", "result": 6, "unit": "nM"},
      {"measurement": "Activity", "setting": "[22]", "result": "inactive"},
      {"measurement": "Ratio IC50", "setting": "VCaP [23]", "result": 30},
      {"measurement": "fold change (FC)", "setting": "[24]", "result": "> 10"},
      {"measurement": "fold change (FC)", "setting": "[25]", "result": "> 10"},
      {"measurement": "fold change (FC)", "setting": "[26]", "result": "> 10"},
      {"measurement": "fold change (FC)", "setting": "[27]", "result": "> 10"},
      {"measurement": "fold change (FC)", "setting": "[28]", "result": "> 10"},
      {"measurement": "fold change (FC)", "setting": "[29]", "result": "> 10"}
    ]}
  ]
}
